# In patent publication US20250288567A1, “PHARMACEUTICAL COMPOSITION FOR TREATING PRESBYOPIA” (Sight Health Hong Kong Biotechnology Co., Limited, priority 2024, published 2025):
# “And” between values parts separate entries of the source, which are not always exact repeats. Equal entries are not always repeated.
# Tests used:
# presbyopia patients [1] = experiment: Visual acuity before and after treatment with Huperzine A, TRAC1 and their combination (three patients); assay type: in vivo, human; parameters: scale not given here
# Description: This hypothesis is tested by using 0.05%-0.3% Huperzine A and 0.05%-0.3% TRAC1. Three patients are treated with each drug, as well as the combination of both drugs.
# presbyopia patients [2] = experiment: Side effects reported by patients after Huperzine A eye drops; conditions: human, in vivo
# Description: (§1) A non-randomized clinical case study involving 40 eyes of 20 presbyopia patients with uncorrected distance visual acuity (UDVA) of 0.4-1.0 and uncorrected near visual acuity (UNVA) of less than Jaeger1, aged 33-70 years is conducted. The patients are randomly divided into 3 groups, using eye drops with concentration of Huperzine A ranging from 0.1%-0.3% for clinical trials. Data are collected on changes in visual acuity, including UDVA, UNVA40, UNVA66, pupil diameter changes, and non-contact intraocular pressure, before and 30 minutes after Huperzine A eye drops. The data are grouped according to drug concentration and age and are analyzed. The discomfort symptoms appeared half an hour after using the eye drops are recorded, and the time when the relevant symptoms disappeared is obtained during the telephone interview in the following 3 days. A detailed description of the case study is further illustrated below.
# The duration of these side effects varies from 2 to 5 hours and gradually relieves over time. Additionally, some patients report an increase in tear secretion after using the eye drops.
# presbyopia patients [3] = experiment: Non-randomized clinical case study of Huperzine A eye drops: uncorrected near visual acuity (UNVA40, UNVA66) before and 30 minutes after; assay type: in vivo, human
# Description: as §1
# The clinical study of the present invention is conducted in March 2022 at a university hospital. Individuals over the age of 30 who feel their near vision has decreased are recruited and voluntarily participate in the test through a long-term open recruitment process. Inclusion criteria include best corrected distance visual acuity of 1.0, 40 cm reading visual acuity (UNVA40) or 66 cm computer visual acuity (UNVA66) lower than the Jaeger score J1, normal intraocular pressure, no history of retinal-related medical conditions, good general health, absence of systemic symptoms, and no rheumatic or systemic immune diseases.
# Participants first complete a health declaration questionnaire with assistance from medical staff. They then measure their blood pressure and heart rate before undergoing computer optometry, as well as examinations for best corrected distance visual acuity and uncorrected distance visual acuity. They use the Jaeger score table to assess uncorrected reading visual acuity at 40 cm (UNVA40) and 66 cm (UNVA66) for computer visual acuity. Additionally, they have non-contact intraocular pressure measurements, pupil diameter assessments under room lighting, and a slit lamp examination by an experienced clinical ophthalmologist to rule out ocular diseases. Fundus photography is also performed.
# Participants who meet the screening criteria are randomly divided into […]. One drop of 0.1%-0.3% Huperzine A eye drops is administered in each eye. After 30 minutes, the best corrected distance visual acuity, uncorrected distance visual acuity at 40 cm (UNVA40), and 66 cm computer visual acuity (UNVA66) are measured again, along with non-contact intraocular pressure and pupil diameter under room lighting.
# The drug used in this present test is Huperzine A at a range of 0.1%-0.3% concentration, using standard ophthalmic dropper bottles, each yielding 40 μL drops and each drop effectively dispenses 0.1%-0.3%.
# The collected data are organized so that J1+ is recorded as 0 on the Jaeger scale, J1 as 1, J2 as 2, and so forth.
# The patients are grouped by age: 40 years old or below (2 people, 4 eyes), 41-50 years old (9 people, 18 eyes), 51-60 years old (6 people, 12 eyes), 61-70 years old (2 people, 4 eyes), and over 70 years old (1 people, 2 eyes).
# [4] = test system: patients with astigmatism (UDVA less than 0.8); experiment: Uncorrected distance visual acuity (UDVA) of eyes with astigmatism after Huperzine A eye drops; assay type: in vivo, human; conditions: 2 patients, 4 eyes with astigmatism
# Description: as §1
# Participants first complete a health declaration questionnaire with assistance from medical staff. They then measure their blood pressure and heart rate before undergoing computer optometry, as well as examinations for best corrected distance visual acuity and uncorrected distance visual acuity. They use the Jaeger score table to assess uncorrected reading visual acuity at 40 cm (UNVA40) and 66 cm (UNVA66) for computer visual acuity. […]
# [5] = Patient 1, Right eye (OD), Jaeger score, 0.05%-0.3%
# [6] = Group 1, 40 years old or below, 2 people 4 eyes
# [7] = Group 2, 41-50 years old, 9 people 18 eyes
# [8] = Group 3, 51-60 years old, 6 people 12 eyes
# [9] = Group 4, 61-70 years old, 2 people 4 eyes
# [10] = Group 5, over 70 years old, 1 person 2 eyes
# [11] = all patients, 20 patients 40 eyes, 0.1%-0.3% eye drops, 30 minutes after
smiles,measurement,setting,value
Nc1c2c(nc3ccccc13)CCCC2 [Tacrine],"Near 40 cm, After treatment","presbyopia patients [1]; Patient 1, Left eye (OS)",3
same,"Near 40 cm, Improvement","presbyopia patients [1]; Patient 1, Left eye (OS)",2
same,"Near 66 cm, After treatment","presbyopia patients [1]; Patient 1, Left eye (OS)",2
same,"Near 66 cm, Improvement","presbyopia patients [1]; Patient 1, Left eye (OS)",2
same,"Near 40 cm, Improvement","presbyopia patients [1]; Patient 1, Right eye (OD)",3
same,"Near 66 cm, After treatment","presbyopia patients [1]; Patient 1, Right eye (OD)",2
same,"Near 66 cm, Improvement","presbyopia patients [1]; Patient 1, Right eye (OD)",2
same,"Near 40 cm, After treatment",presbyopia patients [1]; [5],3
same,"Near 40 cm, After treatment","presbyopia patients [1]; Patient 2, Left eye (OS)",4
same,"Near 40 cm, Improvement","presbyopia patients [1]; Patient 2, Left eye (OS)",5
same,"Near 66 cm, After treatment","presbyopia patients [1]; Patient 2, Left eye (OS)",2
same,"Near 66 cm, Improvement","presbyopia patients [1]; Patient 2, Left eye (OS)",4
same,"Near 40 cm, After treatment","presbyopia patients [1]; Patient 2, Right eye (OD)",4
same,"Near 40 cm, Improvement","presbyopia patients [1]; Patient 2, Right eye (OD)",6
same,"Near 66 cm, After treatment","presbyopia patients [1]; Patient 2, Right eye (OD)",3
same,"Near 66 cm, Improvement","presbyopia patients [1]; Patient 2, Right eye (OD)",3
same,"Near 40 cm, After treatment","presbyopia patients [1]; Patient 3, Left eye (OS)",3
same,"Near 40 cm, Improvement","presbyopia patients [1]; Patient 3, Left eye (OS)",8
same,"Near 66 cm, After treatment","presbyopia patients [1]; Patient 3, Left eye (OS)",3
same,"Near 66 cm, Improvement","presbyopia patients [1]; Patient 3, Left eye (OS)",6
same,"Near 40 cm, After treatment","presbyopia patients [1]; Patient 3, Right eye (OD)",2
same,"Near 40 cm, Improvement","presbyopia patients [1]; Patient 3, Right eye (OD)",6
same,"Near 66 cm, After treatment","presbyopia patients [1]; Patient 3, Right eye (OD)",2
same,"Near 66 cm, Improvement","presbyopia patients [1]; Patient 3, Right eye (OD)",5
C/C=C1\[C@H]2C=C(C)C[C@]1(N)c1ccc(=O)[nH]c1C2 [Huperzine A],lacrimation (side effect),presbyopia patients [2],6%
same,N40 improved,presbyopia patients [3]; [6],2.25 J
same,N66 improved,presbyopia patients [3]; [6],1.50 J
same,"UNVA40 after treatment (Near 40, After)",presbyopia patients [3]; [6],1.00 J
same,"UNVA66 after treatment (Near 66, After)",presbyopia patients [3]; [6],2.75 J
same,N40 improved,presbyopia patients [3]; [7],3.05 J and 3.06 J
same,N66 improved,presbyopia patients [3]; [7],1.72 J
same,"UNVA40 after treatment (Near 40, After)",presbyopia patients [3]; [7],1.89 J
same,"UNVA66 after treatment (Near 66, After)",presbyopia patients [3]; [7],1.61 J
same,N40 improved,presbyopia patients [3]; [8],1.92 J
same,N66 improved,presbyopia patients [3]; [8],2.33 J
same,"UNVA40 after treatment (Near 40, After)",presbyopia patients [3]; [8],3.75 J
same,"UNVA66 after treatment (Near 66, After)",presbyopia patients [3]; [8],3.67 J
same,N40 improved,presbyopia patients [3]; [9],3.75 J
same,N66 improved,presbyopia patients [3]; [9],2.00 J
same,"UNVA40 after treatment (Near 40, After)",presbyopia patients [3]; [9],2.25 J
same,"UNVA66 after treatment (Near 66, After)",presbyopia patients [3]; [9],3.00 J
same,N40 improved,presbyopia patients [3]; [10],6.00 J
same,N66 improved,presbyopia patients [3]; [10],4.50 J
same,"UNVA40 after treatment (Near 40, After)",presbyopia patients [3]; [10],7.00 J
same,"UNVA66 after treatment (Near 66, After)",presbyopia patients [3]; [10],4.00 J
same,N40 improved (average improvement of UNVA40),presbyopia patients [3]; [11],2.85 J
same,N66 improved (average improvement of UNVA66),presbyopia patients [3]; [11],2.05 J
same,"UNVA66 after treatment (Near 66, After)","presbyopia patients [3]; all patients, 20 patients 40 eyes, 0.1%-0.3% eye drops, 30 minutes after, Jaeger score",2.60 J
same,"UNVA40 after treatment (Near 40, After)","presbyopia patients [3]; all patients, 20 patients 40 eyes, 0.1%-0.3% eye drops, 30 minutes after, Jaeger score, J1+ = 0",2.65 J
same,"effect on near vision, 41-50-year-old group compared with 51-60-year-old group","presbyopia patients [3]; human, in vivo",more significant effect on the former group
same,"Near 40 cm, After treatment","presbyopia patients [1]; Patient 1, Left eye (OS)",3
same,"Near 40 cm, Improvement","presbyopia patients [1]; Patient 1, Left eye (OS)",2
same,"Near 66 cm, After treatment","presbyopia patients [1]; Patient 1, Left eye (OS)",2
same,"Near 66 cm, Improvement","presbyopia patients [1]; Patient 1, Left eye (OS)",2
same,"Near 40 cm, Improvement","presbyopia patients [1]; Patient 1, Right eye (OD)",3
same,"Near 66 cm, After treatment","presbyopia patients [1]; Patient 1, Right eye (OD)",2
same,"Near 66 cm, Improvement","presbyopia patients [1]; Patient 1, Right eye (OD)",2
same,"Near 40 cm, After treatment",presbyopia patients [1]; [5],3
same,"Near 40 cm, After treatment","presbyopia patients [1]; Patient 2, Left eye (OS)",4
same,"Near 40 cm, Improvement","presbyopia patients [1]; Patient 2, Left eye (OS)",5
same,"Near 66 cm, After treatment","presbyopia patients [1]; Patient 2, Left eye (OS)",2
same,"Near 66 cm, Improvement","presbyopia patients [1]; Patient 2, Left eye (OS)",4
same,"Near 40 cm, After treatment","presbyopia patients [1]; Patient 2, Right eye (OD)",4
same,"Near 40 cm, Improvement","presbyopia patients [1]; Patient 2, Right eye (OD)",6
same,"Near 66 cm, After treatment","presbyopia patients [1]; Patient 2, Right eye (OD)",3
same,"Near 66 cm, Improvement","presbyopia patients [1]; Patient 2, Right eye (OD)",3
same,"Near 40 cm, After treatment","presbyopia patients [1]; Patient 3, Left eye (OS)",3
same,"Near 40 cm, Improvement","presbyopia patients [1]; Patient 3, Left eye (OS)",8
same,"Near 66 cm, After treatment","presbyopia patients [1]; Patient 3, Left eye (OS)",3
same,"Near 66 cm, Improvement","presbyopia patients [1]; Patient 3, Left eye (OS)",6
same,"Near 40 cm, After treatment","presbyopia patients [1]; Patient 3, Right eye (OD)",2
same,"Near 40 cm, Improvement","presbyopia patients [1]; Patient 3, Right eye (OD)",6
same,"Near 66 cm, After treatment","presbyopia patients [1]; Patient 3, Right eye (OD)",2
same,"Near 66 cm, Improvement","presbyopia patients [1]; Patient 3, Right eye (OD)",5
same,UDVA increase after Huperzine A eye drops,[4],0.2 and 0.1
